In patent US20250179031A1, “PROTEASOME ENHANCERS AND USES THEREOF” (Board of Trustees of Michigan State University, priority 2022, published 2025):
Blank lines part the entries; values can stand above or below the compound they belong to.

Key:
Type in all cases: biochemical
human 20S proteasome = test system: T1, human 20S proteasome; assay: Fluorogenic peptide degradation 20S proteasome activity assay, combination of CT-L, T-L and Casp-L substrates; details: for Fold increase over vehicle (30 μM), enhancement of 20S activity: 30 μM compound, mixture of the three substrates, 15 min pre-treatment at 37° C., 1 h read; for concentration at which 20S activity was doubled in the combination (in words) / AC200 (concentration at which 20S activity was doubled), Combo / Max Fold, Combo: combination of the three substrates; for AC200 (concentration at which 20S activity was doubled), Combo / Max Fold, Combo: 1.25-40 μM titration
T1 construct: purchased Boston Biochem, Inc. (Cambridge, MA)
Experimental: (§1) Activity assays were carried out in a 100 μL reaction volume. Different concentrations (40-1.25 μM) of test compounds (1 μL) were added to a black flat/clear bottom 96-well plate containing 2 nM of human constitutive 20S proteasome ([…]), in 50 mM Tris-HCl at pH 7.8, 100 mM NaCl and allowed to incubate for 15 min at 37° C. Fluorogenic substrates (5 μL) were then added and the enzymatic activity measured at 37° C. on a SpectraMax M5e spectrometer by measuring the change in fluorescence unit per minute for 1 hour at 380-460 nm. The fluorescence units for the vehicle control were set at a 100%, and the ratio of drug-treated sample set to that of vehicle control was used to calculate the fold change in enzymatic activity. The fluorogenic substrates used were one of the following: Suc-LLVY-AMC (CT-L activity, 20 μM), Z-LLE-AMC (Casp-L activity, 20 μM), Boc-LRR-AMC (Trp-L activity, 40 μM) or a combination of the three substrates each at 6.67 μM. Results were analysed and plotted using GraphPad Prism 7.
(§2) Screening of this library of dihydroquinazolines was performed in two stages. In the first stage, each compound was screened at three concentrations (3, 10 and 30 μM) to select lead agents. Secondly, lead agents were further analyzed using full concentration responses (6-point titration ranging from 1.25 μM-40 μM) for each of the three proteolytic activities of the 20S proteasome and a combination thereof. The proteolytic activity of the 20S proteasome can be monitored in vitro by measuring the cleavage of fluorogenic peptide substrates for the different catalytic sites as an increase in 7-amino-4-methycoumarin (AMC) fluorescence overtime. A combination of chymotrypsin-like (CT-L, Suc-LLVY-AMC), tryptic-like (T-L, Boc-LRR-AMC) and caspase-like (Casp-L, Z-LLE-AMC) peptide substrates were used in equal amounts to screen compounds for overall 20S activity.
Pure human 20S proteasome was pre-treated with 3, 10 or 30 μM of one of the analogues or DMSO (vehicle control) for 15 min at 37° C. To each sample was then added a mixture of the three substrates (13.3 μM each). The release of AMC was monitored as fluorescence overtime for 1 h and the resulting 20S activity changes were determined by comparing to the untreated 20S and calculating the fold-increase in activity for each analogue at a given concentration (Table 1, 30 μM).
(§3) After analyzing the results in Table 1, three of the most promising analogues were selected for further studies into their 20S activity. Compounds 10, 2 and 18 were selected to be carried forward based on their fold increase and the highest Max-Fold activities. […] These compounds were then tested to obtain a full concentration—response (FIG. 1) of their activities towards the 20S proteasome using each of the three substrates for the three catalytic sites individually and the combination of the three substrates. This was done to ensure that each of the selected compounds activate the 20S proteasome at all three catalytic sites, which is critical for effective IDP degradation, as these proteins are likely to contain multiple cleavage sites for each.
(§4) Using the data in FIG. 1, the concentration at which 20S activity was doubled (AC200) was calculated for each compound using each substrate and the combination of the three substrates (Table 2).

[1] = test system: T2, human 20S proteasome, chymotrypsin-like (CT-L) site; assay: Fluorogenic peptide degradation 20S proteasome activity assay, Suc-LLVY-AMC (CT-L activity); details: Suc-LLVY-AMC substrate
T2 construct: purchased Boston Biochem, Inc. (Cambridge, MA)
Experimental: as §1, §2, §3, §4

[2] = test system: T3, human 20S proteasome, tryptic-like (T-L) site; assay: Fluorogenic peptide degradation 20S proteasome activity assay, Boc-LRR-AMC (T-L activity); details: Boc-LRR-AMC substrate
T3 construct: purchased Boston Biochem, Inc. (Cambridge, MA)
Experimental: as §1, §2, §3, §4

[3] = test system: T4, human 20S proteasome, caspase-like (Casp-L) site; assay: Fluorogenic peptide degradation 20S proteasome activity assay, Z-LLE-AMC (Casp-L activity); details: Z-LLE-AMC substrate
T4 construct: purchased Boston Biochem, Inc. (Cambridge, MA)
Experimental: as §1, §2, §3, §4

[4] = test system: T5, human 20S proteasome (α-synuclein substrate); assay: In vitro purified α-synuclein degradation assay (silver stain); details: pure human α-synuclein, 4 h at 37° C., silver stain quantified
T5 construct: purchased Boston Biochem, Inc. (Cambridge, MA)
Experimental: Representative silver stain of these alpha-synuclein digestions and quantification of three trials. 20S proteasome subunits were used as a loading control in the quantification (right). […] Error bars denote standard deviation. Ordinary one-way ANOVA statistical analysis was used to determine statistical significance (ns=not significant, *p<0.05, **p<0.01, […], and ****p<0.00001).
In vitro purified α-synuclein degradation assay. Digestion of α-synuclein was carried out in a 50 μL reaction volume made of 50 mM Tris and 100 mM NaCl at pH 7.8; 0.5 μM purified α-synuclein and 6.7 nM purified human 20S proteasome. Briefly, 20S proteasome was diluted to 7.58 nM in the reaction buffer. Test compounds or vehicle (1 μL of 50× stock or DMSO) were added to 44 μL of 7.58 nM 20S and incubated at 37° C. for 20 min. 5 μL of 5 μM α-synuclein substrate was then added to the reaction mixture and incubated at 37° C. for 4 hours. The reactions were quenched with concentrated sodium dodecyl sulfate (SDS) loading buffer. After boiling for 10 min, samples were resolved on a 4-20% Tris-glycine SDS-PAGE gel. The gels were then stained using a Pierce Silver Stain Kit (Thermo Scientific, Rockford IL) and the provided procedure. Silver stained gels were then quantified using ImageJ. […]

AC200, CT-L [1]: 10.5 µM
Max Fold, CT-L [1]: 3.8 fold
AC200, T-L [2]: 1.7 µM
Max Fold, T-L [2]: 8.7 fold
AC200, Casp-L [3]: 2.8 µM
Max Fold, Casp-L [3]: 10.6 fold
Fold increase over vehicle (30 μM), enhancement of 20S activity (human 20S proteasome): 7 fold
concentration at which 20S activity was doubled in the combination (in words) (human 20S proteasome): low μM concentrations
AC200 (concentration at which 20S activity was doubled), Combo (human 20S proteasome): 1.3 µM
Max Fold, Combo (human 20S proteasome): 5.5 fold
Compound: COc1ccc2c(c1)N=C(c1ccccc1)N(C1CCN(Cc3ccccc3)CC1)C2c1ccccc1 (stereo not drawn) [Compound 18]
20S-mediated degradation of α-synuclein (in words) [4]: effectively enhanced the rate of degradation of α-synuclein by the 20S in vitro in a concentration dependent manner

Fold increase over vehicle (30 μM), enhancement of 20S activity (human 20S proteasome): 1.2 fold
Compound: COc1ccc2c(c1)N=C(c1ccccc1)N(CC1CCN(C)CC1)C2c1ccccc1 (stereo not drawn) [Compound 19, 7-Methoxy-3-[(1-methyl-4-piperidyl)methyl]-2,4-diphenyl-3,4-dihydroquinazoline]

Fold increase over vehicle (30 μM), enhancement of 20S activity (human 20S proteasome): 1.6 fold
Compound: COc1ccc2c(c1)N=C(c1ccccc1)N(CC1CCOCC1)C2c1ccccc1 (stereo not drawn) [Compound 20, 7-Methoxy-2,4-diphenyl-3-[(tetrahydro-2H-pyran-4-yl)methyl]-3,4-dihydroquinazoline]

Fold increase over vehicle (30 μM), enhancement of 20S activity (human 20S proteasome): 8.2 fold
Compound: COc1ccc2c(c1)N=C(c1ccccc1)N(CC1CCCCC1)C2c1ccccc1 (stereo not drawn) [Compound 21, 3-(Cyclohexylmethyl)-7-methoxy-2,4-diphenyl-3,4-dihydroquinazoline]

Fold increase over vehicle (30 μM), enhancement of 20S activity (human 20S proteasome): 2.7 fold
Compound: COc1ccc2c(c1)N=C(c1ccccc1)N(CC#N)C2c1ccccc1 (stereo not drawn) [Compound 22, (7-Methoxy-2,4-diphenyl-3,4-dihydroquinazolin-3-yl)acetonitrile]

Fold increase over vehicle (30 μM), enhancement of 20S activity (human 20S proteasome): 2.3 fold
Compound: C=CCN1C(c2ccccc2)=Nc2cc(OC)ccc2C1c1ccccc1 (stereo not drawn) [Compound 23]

Fold increase over vehicle (30 μM), enhancement of 20S activity (human 20S proteasome): 1.6 fold
Compound: CCCCCCN1C(c2ccccc2)=Nc2cc(OC)ccc2C1c1ccccc1 (stereo not drawn) [Compound 24]

20S-mediated degradation of α-synuclein (in words) [4]: prevented α-synuclein degradation
Compound: CC(C)C[C@H](NC(=O)[C@H](Cc1ccccc1)NC(=O)c1cnccn1)B(O)O [bortezomib, reference compound]

More lines, now with the values behind:

Compound: c1ccc(CN2C(c3ccccc3)=Nc3ccccc3C2c2ccccc2)cc1 (stereo not drawn) [Compound 1, 3-Benzyl-2,4-diphenyl-3,4-dihydroquinazoline]
Fold increase over vehicle (30 μM), enhancement of 20S activity (human 20S proteasome): 4 fold

Compound: COc1ccc2c(c1)N=C(c1ccccc1)N(Cc1ccccc1)C2c1ccccc1 (stereo not drawn) [Compound 2]
AC200, CT-L [1]: 12.9 µM
Max Fold, CT-L [1]: 5.6 fold
AC200, T-L [2]: 5.0 µM
Max Fold, T-L [2]: 11.7 fold
AC200, Casp-L [3]: 5.6 µM
Max Fold, Casp-L [3]: 13.4 fold
Fold increase over vehicle (30 μM), enhancement of 20S activity (human 20S proteasome): 7.9 fold
concentration at which 20S activity was doubled in the combination (in words) (human 20S proteasome): low μM concentrations
AC200 (concentration at which 20S activity was doubled), Combo (human 20S proteasome): 2.0 µM
Max Fold, Combo (human 20S proteasome): 10.1 fold

Compound: Cc1ccc2c(c1)N=C(c1ccccc1)N(Cc1ccccc1)C2c1ccccc1 (stereo not drawn) [Compound 3, 3-Benzyl-7-methyl-2,4-diphenyl-3,4-dihydroquinazoline]
Fold increase over vehicle (30 μM), enhancement of 20S activity (human 20S proteasome): 8.1 fold

Compound: CCCCCc1ccc2c(c1)N=C(c1ccccc1)N(Cc1ccccc1)C2c1ccccc1 (stereo not drawn) [Compound 4, 3-Benzyl-7-pentyl-2,4-diphenyl-3,4-dihydroquinazoline]
Fold increase over vehicle (30 μM), enhancement of 20S activity (human 20S proteasome): 2.8 fold

Compound: COc1ccc2c(c1)N=C(C1CCCCC1)N(Cc1ccccc1)C2c1ccccc1 (stereo not drawn) [Compound 5, 3-Benzyl-2-cyclohexyl-7-methoxy-4-phenyl-3,4-dihydroquinazoline]
Fold increase over vehicle (30 μM), enhancement of 20S activity (human 20S proteasome): 6.5 fold

Compound: COc1ccc2c(c1)N=C(C1CC1)N(Cc1ccccc1)C2c1ccccc1 (stereo not drawn) [Compound 6]
Fold increase over vehicle (30 μM), enhancement of 20S activity (human 20S proteasome): 2.7 fold

Compound: COc1ccc2c(c1)N=C(C(C)C)N(Cc1ccccc1)C2c1ccccc1 (stereo not drawn) [Compound 7]
Fold increase over vehicle (30 μM), enhancement of 20S activity (human 20S proteasome): 2.3 fold

Compound: CCCCCC1=Nc2cc(OC)ccc2C(c2ccccc2)N1Cc1ccccc1 (stereo not drawn) [Compound 8]
Fold increase over vehicle (30 μM), enhancement of 20S activity (human 20S proteasome): 2.8 fold

Compound: COc1ccc2c(c1)N=C(C)N(Cc1ccccc1)C2c1ccccc1 (stereo not drawn) [Compound 9]
Fold increase over vehicle (30 μM), enhancement of 20S activity (human 20S proteasome): 1.8 fold

Compound: COc1ccc2c(c1)N=C(c1ccccc1)N(c1ccccc1)C2c1ccccc1 (stereo not drawn) [Compound 10]
AC200, CT-L [1]: 8.1 µM
Max Fold, CT-L [1]: 6.7 fold
AC200, T-L [2]: 2.5 µM
Max Fold, T-L [2]: 15.0 fold
AC200, Casp-L [3]: 5.8 µM
Max Fold, Casp-L [3]: 15.3 fold
Fold increase over vehicle (30 μM), enhancement of 20S activity (human 20S proteasome): 9.5 fold
concentration at which 20S activity was doubled in the combination (in words) (human 20S proteasome): low μM concentrations
Max Fold, Combo (human 20S proteasome): 11.1 fold

Compound: COc1ccc2c(c1)N=C(c1ccccc1)N(c1ccccn1)C2c1ccccc1 (stereo not drawn) [Compound 11, 7-Methoxy-2,4-diphenyl-3-(2-pyridyl)-3,4-dihydroquinazoline]
Fold increase over vehicle (30 μM), enhancement of 20S activity (human 20S proteasome): 6.9 fold

Compound: COc1ccc2c(c1)N=C(c1ccccc1)N(c1cccnc1)C2c1ccccc1 (stereo not drawn) [Compound 12]
Fold increase over vehicle (30 μM), enhancement of 20S activity (human 20S proteasome): 5.9 fold

Compound: COc1ccc2c(c1)N=C(c1ccccc1)N(c1cccc3cccnc13)C2c1ccccc1 (stereo not drawn) [Compound 13, 7-Methoxy-2,4-diphenyl-3-(8-quinolyl)-3,4-dihydroquinazoline]
Fold increase over vehicle (30 μM), enhancement of 20S activity (human 20S proteasome): 5.3 fold

Compound: COc1ccc2c(c1)N=C(c1ccccc1)N(Cc1ccccn1)C2c1ccccc1 (stereo not drawn) [Compound 14, 7-Methoxy-2,4-diphenyl-3-[(2-pyridyl)methyl]-3,4-dihydroquinazoline]
Fold increase over vehicle (30 μM), enhancement of 20S activity (human 20S proteasome): 2 fold

Compound: COc1ccc2c(c1)N=C(c1ccccc1)N(CCc1ccccn1)C2c1ccccc1 (stereo not drawn) [Compound 15, 7-Methoxy-2,4-diphenyl-3-[2-(2-pyridyl)ethyl]-3,4-dihydroquinazoline]
Fold increase over vehicle (30 μM), enhancement of 20S activity (human 20S proteasome): 2.8 fold

Compound: COc1ccc2c(c1)N=C(c1ccccc1)N(C1CCCCC1)C2c1ccccc1 (stereo not drawn) [Compound 16, 3-Cyclohexyl-7-methoxy-2,4-diphenyl-3,4-dihydroquinazoline]
Fold increase over vehicle (30 μM), enhancement of 20S activity (human 20S proteasome): 6.7 fold

Compound: COc1ccc2c(c1)N=C(c1ccccc1)N(C1CCN(C)CC1)C2c1ccccc1 (stereo not drawn) [Compound 17, 7-Methoxy-3-(1-methyl-4-piperidyl)-2,4-diphenyl-3,4-dihydroquinazoline]
Max Fold, CT-L [1]: 1.1 fold
Max Fold, T-L [2]: 1.0 fold
Max Fold, Casp-L [3]: 0.8 fold
Fold increase over vehicle (30 μM), enhancement of 20S activity (human 20S proteasome): 1 fold
Max Fold, Combo (human 20S proteasome): 1.4 fold
activity towards the 20S (in words) (human 20S proteasome; screen of Table 1): no discemible activity towards the 20S
